Laboratory results reported in ChEMBL document CHEMBL3046898, “Synthesis and characterization of flurbiprofen hydrazide derivatives as potential anti-HCV, anticancer and antimicrobial agents” (2013).
Calls of active or inactive are those of the source. No cut-off for these calls is given here.

What was measured:
HCT-15 = experiment: Cytotoxicity against human HCT15 assessed as cell growth at 10 uM after 48 hrs by SRB assay; type: functional; details: HCT-15, 48 h, read-out: Activity
HT-29 = experiment: Cytotoxicity against human HT-29 assessed as cell growth at 10 uM after 48 hrs by SRB assay; type: functional; details: HT-29, 48 h, read-out: Activity
786-0 = experiment: Cytotoxicity against human 786-0 assessed as cell growth at 10 uM after 48 hrs by SRB assay; type: functional; details: 786-0, 48 h, read-out: Activity
Escherichia coli [1] = experiment: Antibacterial activity against Escherichia coli at 10 mg/ml after 24 hrs by disc diffusion method; type: functional, organism-based
MDA-MB-468 = experiment: Cytotoxicity against human MDA-MB-468 assessed as cell growth at 10 uM after 48 hrs by SRB assay; type: functional; details: MDA-MB-468, 48 h, read-out: Activity
T47D = experiment: Cytotoxicity against human T47D assessed as cell growth at 10 uM after 48 hrs by SRB assay; type: functional; details: read-out: Activity
Staphylococcus cohnii = experiment: Antibacterial activity against Staphylococcus cohnii at 10 mg/ml after 24 hrs by disc diffusion method; type: functional
COLO 205 = experiment: Cytotoxicity against human COLO205 assessed as cell growth at 10 uM after 48 hrs by SRB assay; type: functional; details: COLO 205, 48 h, read-out: Activity
IGROV-1 = experiment: Cytotoxicity against human IGROV1 assessed as cell growth at 10 uM after 48 hrs by SRB assay; type: functional; details: IGROV-1, 48 h, read-out: Activity
BT-549 = experiment: Cytotoxicity against human BT549 assessed as cell growth at 10 uM after 48 hrs by SRB assay; type: functional; details: BT-549, 48 h, read-out: Activity
NCI-H460 = experiment: Cytotoxicity against human NCI-H460 assessed as cell growth at 10 uM after 48 hrs by SRB assay; type: functional; details: NCI-H460, 48 h, read-out: Activity
PC-3 = experiment: Cytotoxicity against human PC3 assessed as cell growth at 10 uM after 48 hrs by SRB assay; type: functional; details: PC-3, 48 h, read-out: Activity
CCRF-CEM = experiment: Cytotoxicity against human CCRF-CEM assessed as cell growth at 10 uM after 48 hrs by SRB assay; type: functional; details: read-out: Activity
SN12C = experiment: Cytotoxicity against human SN12C assessed as cell growth at 10 uM after 48 hrs by SRB assay; type: functional; details: read-out: Activity
OVCAR-3 = experiment: Cytotoxicity against human OVCAR3 assessed as cell growth at 10 uM after 48 hrs by SRB assay; type: functional; details: OVCAR-3, 48 h, read-out: Activity
UO-31 = experiment: Cytotoxicity against human UO31 assessed as cell growth at 10 uM after 48 hrs by SRB assay; type: functional; details: UO-31, 48 h, read-out: Activity
OVCAR-5 = experiment: Cytotoxicity against human OVCAR5 assessed as cell growth at 10 uM after 48 hrs by SRB assay; type: functional; details: OVCAR-5, 48 h, read-out: Activity
OVCAR-4 = experiment: Cytotoxicity against human OVCAR4 assessed as cell growth at 10 uM after 48 hrs by SRB assay; type: functional; details: OVCAR-4, 48 h, read-out: Activity
SNB-75 = experiment: Cytotoxicity against human SNB75 assessed as cell growth at 10 uM after 48 hrs by SRB assay; type: functional; details: SNB-75, 48 h, read-out: Activity
Pseudomonas aeruginosa [2] = experiment: Antibacterial activity against Pseudomonas aeruginosa at 6.25 to 200 ug/ml after 24 hrs by microwell dilution method; type: functional, organism-based
MOLT-4 = experiment: Cytotoxicity against human MOLT4 assessed as cell growth at 10 uM after 48 hrs by SRB assay; type: functional; details: MOLT-4, 48 h, read-out: Activity
Aspergillus = experiment: Antifungal activity against Aspergillus at 10 mg/ml after 72 hrs by disc diffusion method; type: functional, organism-based
SF-268 = experiment: Cytotoxicity against human SF268 assessed as cell growth at 10 uM after 48 hrs by SRB assay; type: functional; details: SF-268, 48 h, read-out: Activity
Pseudomonas aeruginosa [3] = experiment: Antibacterial activity against Pseudomonas aeruginosa at 10 mg/ml after 24 hrs by disc diffusion method; type: functional, organism-based
SF-295 = experiment: Cytotoxicity against human SF295 assessed as cell growth at 10 uM after 48 hrs by SRB assay; type: functional; details: SF-295, 48 h, read-out: Activity
Micrococcus lylae [4] = experiment: Antibacterial activity against Micrococcus lylae at 10 mg/ml after 24 hrs by disc diffusion method; type: functional, organism-based
A549 = experiment: Cytotoxicity against human A549 assessed as cell growth at 10 uM after 48 hrs by SRB assay; type: functional; details: A549, 48 h, read-out: Activity
Escherichia coli [5] = experiment: Antibacterial activity against Escherichia coli at 6.25 to 200 ug/ml after 24 hrs by microwell dilution method; type: functional, organism-based
SK-MEL-2 = experiment: Cytotoxicity against human SK-MEL-2 assessed as cell growth at 10 uM after 48 hrs by SRB assay; type: functional; details: SK-MEL-2, 48 h, read-out: Activity
Salmonella paratyphi = experiment: Antibacterial activity against Salmonella paratyphi at 6.25 to 200 ug/ml after 24 hrs by microwell dilution method; type: functional, organism-based; details: Salmonella enterica subsp. enterica serovar Paratyphi A
[6] = Cytotoxicity against human NCI-ADR-RES assessed as cell growth at 10 uM after 48 hrs by SRB assay; type: functional; details: read-out: Activity
HOP-62 = experiment: Cytotoxicity against human HOP62 assessed as cell growth at 10 uM after 48 hrs by SRB assay; type: functional; details: HOP-62, 48 h, read-out: Activity
Micrococcus lylae [7] = experiment: Antibacterial activity against Micrococcus lylae at 6.25 to 200 ug/ml after 24 hrs by microwell dilution method; type: functional, organism-based
EKVX = experiment: Cytotoxicity against human EKVX assessed as cell growth at 10 uM after 48 hrs by SRB assay; type: functional; details: read-out: Activity
RXF 393 = experiment: Cytotoxicity against human RXF393 assessed as cell growth at 10 uM after 48 hrs by SRB assay; type: functional; details: RXF 393, 48 h, read-out: Activity
Hs-578T = experiment: Cytotoxicity against human Hs 578T assessed as cell growth at 10 uM after 48 hrs by SRB assay; type: functional; details: read-out: Activity
Staphylococcus aureus = experiment: Antibacterial activity against Staphylococcus aureus at 10 mg/ml after 24 hrs by disc diffusion method; type: functional
SW-620 = experiment: Cytotoxicity against human SW620 assessed as cell growth at 10 uM after 48 hrs by SRB assay; type: functional; details: SW-620, 48 h, read-out: Activity
SK-MEL-5 = experiment: Cytotoxicity against human SK-MEL-5 assessed as cell growth at 10 uM after 48 hrs by SRB assay; type: functional; details: SK-MEL-5, 48 h, read-out: Activity
Micrococcus luteus = experiment: Antibacterial activity against Micrococcus luteus at 10 mg/ml after 24 hrs by disc diffusion method; type: functional, organism-based
Photorhabdus luminescens = experiment: Antibacterial activity against Photorhabdus luminescens at 6.25 to 200 ug/ml after 24 hrs by microwell dilution method; type: functional, organism-based
Pichia membranifaciens = experiment: Antifungal activity against Pichia membranifaciens at 10 mg/ml after 48 hrs by disc diffusion method; type: functional, organism-based

Compound: CC(C(=O)NN1C(=O)CSC1c1ccc(C(F)(F)F)cc1)c1ccc(-c2ccccc2)c(F)c1 (configuration not stated)
- growth at 10 µM (HCT-15): 69.5%
- growth at 10 µM (HT-29): 55.1%
- growth at 10 µM (786-0): 47.2%
- Activity (Escherichia coli [1]): inactive
- growth at 10 µM (MDA-MB-468): 59.4%
- growth at 10 µM (T47D): 33.4%
- Activity (Staphylococcus cohnii): inactive
- growth at 10 µM (COLO 205): 108%
- growth at 10 µM (IGROV-1): 75.5%
- growth at 10 µM (BT-549): 68%
- growth at 10 µM (NCI-H460): 40.5%
- growth at 10 µM (PC-3): 37.5%
- growth at 10 µM (CCRF-CEM): 74.7%
- growth at 10 µM (SN12C): 72.3%
- growth at 10 µM (OVCAR-3): 64.3%
- growth at 10 µM (UO-31): 58.8%
- growth at 10 µM (OVCAR-5): 105%
- growth at 10 µM (OVCAR-4): 58.6%
- growth at 10 µM (SNB-75): 43%
- Activity (Pseudomonas aeruginosa [2]): inactive
- growth at 10 µM (MOLT-4): 43.5%
- Activity (Aspergillus): inactive
- growth at 10 µM (SF-268): 62.1%
- Activity (Pseudomonas aeruginosa [3]): inactive
- growth at 10 µM (SF-295): 58.4%
- Activity (Micrococcus lylae [4]): inactive
- growth at 10 µM (A549): 68.6%
- Activity (Escherichia coli [5]): inactive
- growth at 10 µM (SK-MEL-2): 88.4%
- Activity (Salmonella paratyphi): inactive
- growth at 10 µM [6]: 86.5%
- growth at 10 µM (HOP-62): 82.1%
- Activity (Micrococcus lylae [7]): inactive
- growth at 10 µM (EKVX): 57.9%
- growth at 10 µM (RXF 393): 72.5%
- growth at 10 µM (Hs-578T): 54.2%
- Activity (Staphylococcus aureus): inactive
- growth at 10 µM (SW-620): 83.9%
- growth at 10 µM (SK-MEL-5): 81.8%
- Activity (Micrococcus luteus): inactive
- Activity (Photorhabdus luminescens): inactive
- Activity (Pichia membranifaciens): inactive
